Data from patent US12161722B2, “Bifunctional heterocyclic compound having BTK degradation function via ubiquitin proteasome pathway, and use thereof” (KOREA RESEARCH INSTITUTE OF CHEMICAL TECHNOLOGY, priority 2021, dated 2024).

Molecular target: T1, WT BTK protein (Homo sapiens, UniProt Q06187)
T1 construct: measured for intracellular BTK protein levels by Western blotting; endogenous in cells; host or cells: TMD-8 or RAMOS cells
Test: BTK protein degradation assay (Western blotting), WT BTK
Type: cell-based
Settings: concentration range accounting for 50% degradation of WT BTK protein, TMD-8 or RAMOS cells, 24 hours
Procedure: TMD-8, RAMOS, or 293T BTK MUT (C481S) cells were treated with the synthesized compounds and measured for intracellular BTK protein levels by Western blotting. The protocol of the experiment using TMD-8 cells is as follows.
TMD-8 cells were resuspended in an RPMI1640 medium (Hyclone, SH30027.01, 10% FBS (Hyclone, SV30207.02), 1% penicillin-streptomycin (Welgene, LS 202-02) and the cell suspension was seeded at a density of 1×10^6 cells/mL in an amount of 1 mL per well into 12-well plates.
The 12-well plates were treated as follows. A 10 mM stock was 1/10 diluted in series with DMSO ([…]) to form final concentrations of 10, 1, 0.1, 0.01, 0.001, and 0.0001 mM. The compounds with such concentrations were applied to cells, followed by harvesting the cells 24 hours later. For a negative control, a 1/10 dilution of DMSO in the medium (3 mL DMSO+27 mL medium) was used.
The 1-mL cell culture in each well was passed many times through a pipette and then transferred into a 1.5-mL microtube before centrifugation (500 g, 5 min, 4° C.). The supernatant was discarded and the cell pellet was washed with PBS. After centrifugation (500 g, 5 min, 4° C.) again, the supernatant was discarded and the cell pellet was taken.
A lysis buffer was prepared as follows. RIPA buffer (Biosesang, RC2038-050-00)+0.5 mM PMSF (SIGMA, P7626)+1×Protease/Phosphatase Inhibitor (Cell signaling, 5872S) was added in an amount […] per well and left for 30 minutes on ice (vortexing at 0 and 30 minutes) before sonication (5 cycles of pulse for 10 seconds and rest for 30 seconds, 70% amplification). The supernatant obtained by centrifugation (15000 g, 15 min, 4° C.) was transferred into a new microtube. Cells in each well of 96-well plates were 1/2 diluted with the RIPA buffer and incubated at 37° C. for 30 minutes with […] of a 50:1 mixture of BCA reagents A and B in BCA Protein Assay Kit (iNtRON, 21071). After being cooled for 10 minutes, the 96-well plates were measured for absorbance at 562 nm on the BioTek, SYNERGY H1 microplate reader. Samples were prepared by protein quantification based on the absorbance measurements and then boiled at 70° C. for 10 minutes. The sample buffer used in the case was prepared by mixing a NuPAGE or a Bolt 4× sample buffer (Invitrogen) and its 10× sample reducing agent depending on the gel to be used, and protein dilution was made in a RIPI buffer.
The samples were loaded in the same amount into a NuPAGE or Bolt Bis-tris 4-12% gradient gel and allowed to run therein (200 V, 35 minutes). The separated proteins were transferred onto a […] NC membrane, using Trans-blot Turbo (BIO-RAD) (1.3 A constant, 25V limit, 15 minutes). The membrane was blocked at room temperature for 1 hour with skim milk or Intercept Blocking Buffer (LI-COR, 927-60001):0.1% TBST=1:1. The membrane was incubated with Anti BTK Rabbit (1:1,000 in 5% skim milk/0.2% TBST, size: 77 kDa, Cell signaling Technology) at 4° C. overnight O/N or at room temperature for 2 hours and with Anti GAPDH Rabbit (1:10,000 in 5% BSA/0.2% TBST, size: 36 kDa, GENETEX) and Anti β-actin mouse (1:10,000 in 5% BSA/0.2% TBST, RT, size: 43 kDa, GENETEX) at room temperature for 1 or 3 hours. Then, the membrane was washed three times with 0.5% TBST for 5 minutes each time before incubation with the second antibody Anti-Rabbit IgG (1:5,000 in 5% Skim milk/TBST, CST), IRDye® 800CW Goat anti-Rabbit IgG Secondary Antibody (1:10,000 in 5% skim/TBST, RT 45 min), or IRDye® 680RD Goat anti-Mouse IgG Secondary Antibody (1:10,000 in 5% skim/TBST, RT 45 min) for 45 minutes at room temperature in a rocker. The membrane was washed five times with 0.5% TBST for 5 minutes in each time, followed by detection with LI-COR, Odyssey. In this regard, the detection proceeded, as it was, for house-keeping genes while using SuperSignal West Pico PLUS Chemiluminescent Substrate or SuperSignal West femto Maximum Sensitivity Substrate for BTK detection. […]

T1 sequence (Q06187 whole entry): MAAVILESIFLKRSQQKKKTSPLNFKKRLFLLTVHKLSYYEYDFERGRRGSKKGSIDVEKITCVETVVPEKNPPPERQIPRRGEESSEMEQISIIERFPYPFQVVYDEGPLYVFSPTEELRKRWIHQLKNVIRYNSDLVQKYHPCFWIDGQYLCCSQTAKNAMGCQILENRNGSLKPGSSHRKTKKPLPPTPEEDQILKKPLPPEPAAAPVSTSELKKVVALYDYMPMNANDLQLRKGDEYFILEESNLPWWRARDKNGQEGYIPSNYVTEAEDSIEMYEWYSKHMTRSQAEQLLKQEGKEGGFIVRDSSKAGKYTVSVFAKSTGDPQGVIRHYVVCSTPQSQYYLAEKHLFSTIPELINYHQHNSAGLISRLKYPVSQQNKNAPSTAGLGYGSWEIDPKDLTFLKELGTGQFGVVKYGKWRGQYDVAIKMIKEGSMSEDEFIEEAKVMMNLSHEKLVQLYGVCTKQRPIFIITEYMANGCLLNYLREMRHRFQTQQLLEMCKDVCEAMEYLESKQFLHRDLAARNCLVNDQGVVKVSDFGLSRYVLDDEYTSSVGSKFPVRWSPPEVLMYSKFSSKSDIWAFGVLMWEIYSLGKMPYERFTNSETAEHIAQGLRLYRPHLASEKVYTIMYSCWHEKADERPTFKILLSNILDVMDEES

Row | Structure (SMILES) | DC50 [nM]
1 | Cc1cccc(C)c1Nc1nn(C)c2nc(Nc3ccc4c(c3)CN(C(=O)/C(C#N)=C/C3CCN(C(=O)CNc5ccc6c(c5)C(=O)N(C5CCC(=O)NC5=O)C6=O)CC3)CC4)ncc12 (stereo not shown) [Compound 260, (E)-2-(7-((3-((2,6-Dimethylphenyl)amino)-1-methyl-1H-pyrazolo[3,4-d]pyrimidin-6-yl)amino)-1,2,3,4-tetrahydroisoquinoline-2-carbonyl)-3-(1-((2-(2,6-dioxopiperidin-3-yl)-1,3-dioxoisoindolin-5-yl)glycyl)piperidin-4-yl)acrylonitrile] | 0.1 to 10
2 | Cc1cccc(C)c1Nc1nn(C)c2nc(Nc3ccc(N4CCN(C[C@@H]5CCN(c6ccc7c(c6)C(=O)N(C6CCC(=O)NC6=O)C7=O)C5)CC4)cc3)ncc12 (stereo partly drawn) [Compound 180, 5-((S)-3-((4-(4-((3-((2,6-Dimethylphenyl)amino)-1-methyl-1H-pyrazolo[3,4-d]pyrimidin-6-yl)amino)phenyl)piperazin-1-yl)methyl)pyrrolidin-1-yl)-2-(2,6-dioxopiperidin-3-yl)isoindoline-1,3-dione] | 0.1 to 10
3 | Cc1cccc(C)c1Nc1nn(C)c2nc(Nc3ccc4c(c3)CN(CC3CCN(C(=O)C5CCN(c6cc7c(cc6F)C(=O)N(C6CCC(=O)NC6=O)C7=O)CC5)CC3)CC4)ncc12 (stereo not shown) [Compound 210, 5-(4-(4-((7-((3-((2,6-Dimethylphenyl)amino)-1-methyl-1H-pyrazolo[3,4-d]pyrimidin-6-yl)amino)-3,4-dihydroisoquinolin-2 (1H)-yl)methyl)piperidine-1-carbonyl)piperidin-1-yl)-2-(2,6-dioxopiperidin-3-yl)-6-fluoroisoindoline-1,3-dione] | 0.1 to 10
4 | Cc1cccc(C)c1Nc1nn(C)c2nc(Nc3ccc4c(c3)CN(C3CN(C[C@H]5CCN(c6ccc7c(c6)C(=O)N(C6CCC(=O)NC6=O)C7=O)C5)C3)CC4)ncc12 (stereo partly drawn) [Compound 150, 5-((R)-3-((3-(7-((3-((2,6-Dimethylphenyl)amino)-1-methyl-1H-pyrazolo[3,4-d]pyrimidin-6-yl)amino)-3,4-dihydroisoquinolin-2 (1H)-yl)azetidin-1-yl)methyl)pyrrolidin-1-yl)-2-(2,6-dioxopiperidin-3-yl)isoindoline-1,3-dione] | 0.1 to 10
5 | Cc1cc(F)cc(C)c1Nc1nn(C)c2nc(Nc3ccc4c(c3)CN(CC3CCN(c5ccc6c(c5)C(=O)N(C5CCC(=O)NC5=O)C6=O)CC3)CC4)ncc12 (stereo not shown) [Compound 221, 2-(2,6-dioxopiperidin-3-yl)-5-(4-((7-((3-((4-fluoro-2,6-dimethylphenyl)amino)-1-methyl-1H-pyrazolo[3,4-d]pyrimidin-6-yl)amino)-3,4-dihydroisoquinolin-2 (1H)-yl)methyl)piperidin-1-yl)isoindoline-1,3-dione] | 0.1 to 10
6 | Cc1cccc(C)c1Nc1nn(C)c2nc(Nc3ccc4c(c3)CCN(C[C@H]3CCN(c5ccc6c(c5)C(=O)N(C5CCC(=O)NC5=O)C6=O)C3)C4)ncc12 (stereo partly drawn) [Compound 173, 5-((R)-3-((6-((3-((2,6-Dimethylphenyl)amino)-1-methyl-1H-pyrazolo[3,4-d]pyrimidin-6-yl)amino)-3,4-dihydroisoquinolin-2 (1H)-yl)methyl)pyrrolidin-1-yl)-2-(2,6-dioxopiperidin-3-yl)isoindoline-1,3-dione] | 0.1 to 10
7 | Cc1cccc(C)c1Nc1nn(C)c2nc(Nc3ccc4c(c3)CN(CC3CCN(c5ccc6c(c5)C(=O)N(C5CCC(=O)N(COC(=O)C(C)(C)C)C5=O)C6=O)CC3)CC4)ncc12 (stereo not shown) [Compound 107, (3-(5-(4-((7-((3-((2,6-dimethylphenyl)amino)-1-methyl-1H-pyrazolo[3,4-d]pyrimidin-6-yl)amino)-3,4-dihydroisoquinolin-2 (1H)-yl)methyl)piperidin-1-yl)-1,3-dioxoisoindolin-2-yl)-2,6-dioxopiperidin-1-yl)methyl pivalate] | 0.1 to 10
8 | Cc1cccc(C)c1Nc1nn(C)c2nc(Nc3ccc4c(c3)CN(C(=O)C3CC5(CCN(c6ccc7c(c6)C(=O)N(C6CCC(=O)NC6=O)C7=O)CC5)C3)CC4)ncc12 (stereo not shown) [Compound 124, 5-(2-(7-((3-((2,6-dimethylphenyl)amino)-1-methyl-1H-pyrazolo[3,4-d]pyrimidin-6-yl)amino)-1,2,3,4-tetrahydroisoquinoline-2-carbonyl)-7-azaspiro[3.5]nonan-7-yl)-2-(2,6-dioxopiperidin-3-yl)isoindoline-1,3-dione] | 0.1 to 10
9 | Cc1cccc(C)c1Nc1nn(C)c2nc(Nc3ccc4c(c3)CN(C(=S)C3CCN(C(=O)COc5ccc6c(c5)C(=O)N(C5CCC(=O)NC5=O)C6=O)CC3)CC4)ncc12 (stereo not shown) [Compound 236, 5-(2-(4-(7-((3-((2,6-dimethylphenyl)amino)-1-methyl-1H-pyrazolo[3,4-d]pyrimidin-6-yl)amino)-1,2,3,4-tetrahydroisoquinoline-2-carbonothioyl)piperidin-1-yl)-2-oxoethoxy)-2-(2,6-dioxopiperidin-3-yl)isoindoline-1,3-dione] | 0.1 to 10
10 | Cc1cccc(C)c1Nc1nn(C)c2nc(Nc3ccc4c(c3)CN(CC3CCN(c5ccc6c(c5)CN(C5CCC(=O)NC5=O)C6=O)CC3)CC4)ncc12 (stereo not shown) [Compound 237, 3-(5-(4-((7-((3-((2,6-Dimethylphenyl)amino)-1-methyl-1H-pyrazolo[3,4-d]pyrimidin-6-yl)amino)-3,4-dihydroisoquinolin-2 (1H)-yl)methyl)piperidin-1-yl)-1-oxoisoindolin-2-yl)piperidin-2,6-one] | 0.1 to 10
11 | Cc1cccc(C)c1Nc1nn(C)c2nc(Nc3ccc4c(c3)CN(CC3CCN(c5ccc6c(c5)C(=O)N(C5CCC(=O)NC5=O)C6=O)CC3)C4)ncc12 (stereo not shown) [Compound 73, 5-(4-((5-((3-((2,6-Dimethylphenyl)amino)-1-methyl-1H-pyrazolo[3,4-d]pyrimidin-6-yl)amino)isoindolin-2-yl)methyl)piperidin-1-yl)-2-(2,6-dioxopiperidin-3-yl)isoindoline-1,3-dione] | 10 to 1000
12 | Cc1cccc(C)c1Nc1nn(C)c2nc(Nc3ccc(N4CCN(CC5CCN(c6ccc7c(c6)C(=O)N(C6CCC(=O)NC6=O)C7=O)CC5)CC4)nc3)ncc12 (stereo not shown) [Compound 134, 5-(4-((4-(5-((3-((2,6-Dimethylphenyl)amino)-1-methyl-1H-pyrazolo[3,4-d]pyrimidin-6-yl)amino)pyridin-2-yl)piperazin-1-yl)methyl)piperidin-1-yl)-2-(2,6-dioxopiperidin-3-yl)isoindoline-1,3-dione] | 0.1 to 10
13 | Cc1cccc(C)c1Nc1nn(C)c2nc(Nc3ccc(C4CCN(C[C@@H]5CCN(c6ccc7c(c6)C(=O)N(C6CCC(=O)NC6=O)C7=O)C5)CC4)cc3)ncc12 (stereo partly drawn) [Compound 167, 5-((S)-3-((4-(4-((3-((2,6-Dimethylphenyl)amino)-1-methyl-1H-pyrazolo[3,4-d]pyrimidin-6-yl)amino)phenyl)piperidin-1-yl)methyl)pyrrolidin-1-yl)-2-(2,6-dioxopiperidin-3-yl)isoindoline-1,3-dione] | 0.1 to 10
